According to patent EP4763839A1 (Pamplona Therapeutics (Shenzhen) Co., Ltd., priority 2023, dated 2025):
Counter-ions that a name gives are not always drawn. Like-named read-outs stand apart in the source and are kept apart here.

Target: T1, IRAK4 (Homo sapiens, UniProt Q9NWZ3)
T1 sequence (Q9NWZ3 1-460): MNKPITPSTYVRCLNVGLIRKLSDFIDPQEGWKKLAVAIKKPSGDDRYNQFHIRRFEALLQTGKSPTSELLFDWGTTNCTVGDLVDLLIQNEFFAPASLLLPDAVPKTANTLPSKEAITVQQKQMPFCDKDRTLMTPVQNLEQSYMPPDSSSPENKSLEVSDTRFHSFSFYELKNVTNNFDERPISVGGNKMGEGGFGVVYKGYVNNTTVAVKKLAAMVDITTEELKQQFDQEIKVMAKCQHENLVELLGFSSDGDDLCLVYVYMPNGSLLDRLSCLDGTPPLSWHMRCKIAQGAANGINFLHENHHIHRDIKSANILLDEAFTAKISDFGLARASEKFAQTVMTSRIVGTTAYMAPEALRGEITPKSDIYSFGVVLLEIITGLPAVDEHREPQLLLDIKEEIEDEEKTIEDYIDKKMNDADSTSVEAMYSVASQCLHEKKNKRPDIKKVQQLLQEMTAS
Experiment: Degradation of IRAK4 in THP1 cells, Western blot
Format: cell-based
Parameters: Degradation of IRAK4 in THP1 by compound; host or cells: THP-1
Method: After 24 hours of incubation, the cells were collected into 1.5 mL centrifuge tubes and centrifuged at 1,000 rpm for 5 minutes. […] The supernatants were collected, and the IRAK4 protein levels were respectively detected by Western blot (WB). The total protein concentration in the cell lysate supernatant was determined using a BCA protein quantification kit (NCM). Based on the total protein concentration detected by BCA, the samples were adjusted to 2 μg/μL using cell lysis buffer and 5×SDS-PAGE protein loading buffer (Beyotime), heated at 95°C for 5 minutes in a metal bath, and then placed on ice for an ice bath for 5 minutes before being used as the loading samples for Western blot analysis. Protein electrophoresis was performed using a 10% SDS-PAGE gel with a loading volume of 20 μL (total protein 40 μg) and Tris-SDS electrophoresis at a constant voltage of 80 V. After electrophoresis, the proteins on the gel were transferred to a 0.2 μm PVDF membrane (Immobilon) using a semi-dry transfer method at 0.5 A and 20 V for 60 minutes. After transfer, the membrane was placed in 5% skimmed milk and incubated at rt for 2 hours. After blocking, the PVDF membrane was incubated with primary antibody against IRAK4 (Abcam) at 4°C overnight. […] The color development and protein band imaging were performed using a chemiluminescence imaging system ([…] Technology Co., Ltd.). The protein bands were analyzed for grayscale values using Image J analysis software. The corrected grayscale values for each sample were calculated and then compared with those of the control group treated with DMSO alone to calculate the degradation rate.

[1] = THP-1 cells, 24 hours of incubation, IRAK4 protein by Western blot, read-out: DC50
[2] = maximum degradation rate, THP-1 cells, 24 hours of incubation, read-out: Dmax

Row | Compound | DC50 [1] [nM] | Dmax [2] [%] | DC50 [nM] | Dmax (THP-1) [%] | Dmax (maximum degradation rate, THP-1 cells, 24 hours of incubation)
1 | Cn1c(-c2ccc(N3CCC(CCN4CCN(c5ccc(-n6cc(NC(=O)c7cccc(C(F)(F)F)n7)c(C(N)=O)n6)cc5)CC4)C3)cc2)nn(C2CCC(=O)NC2=O)c1=O (stereo not drawn) [Compound A185] | < 100 | 40 to 60 |  |  | 
2 | Cn1c(=O)n(C2CCC(=O)NC2=O)c2cccc(N3CCC(CN4CCN(c5ccc(-n6cc(NC(=O)c7cccc(C(F)(F)F)n7)c(C(N)=O)n6)cc5)CC4)C(F)(F)C3)c21 (stereo not drawn) [Compound A298, N-(3-Carbamoyl-1-(4-(4-((1-(1-(2,6-dioxopiperidin-3-yl)-3-methyl-2-oxo-2,3-dihydro-1H-benzo[d]imidazol-4-yl)-3,3-difluoropiperidin-4-yl)methyl)piperazin-1-yl)phenyl)-1H-pyrazol-4-yl)-6-(trifluoromethyl)picolinamide] | < 100 | > 60 |  |  | 
3 | Cn1c(=O)n(C2CCC(=O)NC2=O)c2ccc(N3CCC(CN4CCN(c5ccc(-n6cc(NC(=O)c7cccc(C(F)(F)F)n7)c(C(N)=O)n6)cc5)CC4)C(F)(F)C3)cc21 (stereo not drawn) [Compound A299, N-(3-Carbamoyl-1-(4-(4-((1-(1-(2,6-dioxopiperidin-3-yl)-3-methyl-2-oxo-2,3-dihydro-1H-benzo[d]imidazol-5-yl)-3,3-difluoropiperidin-4-yl)methyl)piperazin-1-yl)phenyl)-1H-pyrazol-4-yl)-6-(trifluoromethyl)picolinamide] | < 100 | > 60 |  |  | 
4 | Cn1c(=O)n(C2CCC(=O)NC2=O)c2cccc(N3CCC(CCN4CCN(c5ccc(-n6cc(NC(=O)c7cccc(C(F)(F)F)n7)c(C(N)=O)n6)cc5)CC4)C(F)(F)C3)c21 (stereo not drawn) [Compound A300] |  |  | < 100 | > 60 | 
5 | Cn1c(=O)n(C2CCC(=O)NC2=O)c2ccc(N3CCC(CN4CCN(c5ccc(-n6cc(NC(=O)c7cccc(C(F)(F)F)n7)c(C(N)=O)n6)cc5)CC4)C3)cc21 (stereo not drawn) [Compound A304, N-(3-carbamoyl-1-(4-(4-((1-(1-(2,6-dioxopiperidin-3-yl)-3-methyl-2-oxo-2,3-dihydro-1H-benzo[d]imidazol-5-yl)pyrrolidin-3-yl)methyl)piperazin-1-yl)phenyl)-1H-pyrazol-4-yl)-6-(trifluoromethyl)picolinamide] | < 100 | 40 to 60 |  |  | 
6 | Cn1c(=O)n(C2CCC(=O)NC2=O)c2cccc(N3CCC(CN4CCN(c5ccc(-n6cc(NC(=O)c7cccc(C(F)(F)F)n7)c(C(N)=O)n6)cc5)CC4)C3)c21 (stereo not drawn) [Compound A305, N-(3-carbamoyl-1-(4-(4-((1-(1-(2,6-dioxopiperidin-3-yl)-3-methyl-2-oxo-2,3-dihydro-1H-benzo[d]imidazol-4-yl)pyrrolidin-3-yl)methyl)piperazin-1-yl)phenyl)-1H-pyrazol-4-yl)-6-(trifluoromethyl)picolinamide] | 100 to 1000 | 40 to 60 |  |  | 
7 | COc1ccc(C(=O)N2CCC(CN3CCN(C(=O)c4ccc(-n5cc(NC(=O)c6cccc(C(F)(F)F)n6)c(C(N)=O)n5)cc4)CC3)C2)cc1N1CCC(=O)NC1=O (stereo not drawn) [Compound A313, N-(3-carbamoyl-1-(4-((1-(3-(2,4-dioxotetrahydropyrimidin-1(2H)yl)-4-methoxybenzoyl)pyrrolidin-3-yl)methyl)piperazine-1-carbonyl)phenyl)-1H-pyrazol-4-yl)-6-(trifluoromethyl)picolinamide trifluoroacetate] | 100 to 1000 | > 60 |  |  | 
8 | CN(Cc1ccc(-n2cc(NC(=O)c3cccc(C(F)(F)F)n3)c(C(N)=O)n2)cc1)C1CC2(CCN(c3cccc4c3n(C)c(=O)n4C3CCC(=O)NC3)CC2)C1 (stereo not drawn) [Compound A315] | 100 to 1000 |  |  |  | A (A represents Dmax > 60%)
9 | Cn1c(=O)n(C2CCC(=O)NC2=O)c2cccc(N3CCC4(CC3)CC(NC(=O)c3ccc(-n5cc(NC(=O)c6cccc(C(F)(F)F)n6)c(C(N)=O)n5)cc3)C4)c21 (stereo not drawn) [Compound A320] | < 100 | > 60 |  |  | 
10 | COc1ccc(C(=O)N2CCC(CCN3CCN(c4ccc(-n5cc(NC(=O)c6cccc(-c7ccn[nH]7)n6)c(S(N)(=O)=O)n5)cc4)CC3)CC2)cc1N1CCC(=O)NC1=O [Compound A324] | < 100 | > 60 |  |  | 
11 | Cn1c(=O)n(C2CCC(=O)NC2=O)c2ccc(N3CCC(CN4CCN(c5ccc(-n6cc(NC(=O)c7cccc(-c8ccn[nH]8)n7)c(S(N)(=O)=O)n6)cc5)CC4)CC3)cc21 (stereo not drawn) [Compound A326, N-[3-(aminodioxyylidene-λ6-thio)-1-{4-[4-({1-[1-(2,6-dioxopiperidin-3-yl)-3-methyl-2-oxobenzo[d]imidazol-5-yl]piperidin-4-yl}methyl)piperazin-1-yl]phenyl}pyrazol-4-yl]-6-(2H-pyrazol-3-yl)pyridine-2-carboxamide] | < 100 | > 60 |  |  | 

Continued, in another order:

Row | DC50 [1] [nM] | Dmax [2] [%] | Compound | DC50 [nM] | Dmax (THP-1) [%] | Dmax (maximum degradation rate, THP-1 cells, 24 hours of incubation)
12 | < 100 | > 60 | Cn1c(=O)n(C2CCC(=O)NC2=O)c2cccc(N3CCC4(CC3)CN(CCc3ccc(-n5cc(NC(=O)c6cccc(C(F)(F)F)n6)c(C(N)=O)n5)cc3)C4)c21 (stereo not drawn) [Compound A316, N-(3-carbamoyl-1-(4-(2-(7-(1-(2,6-dioxopiperidin-3-yl)-3-methyl-2-oxo-2,3-dihydro-1H-benzo[d]imidazol-4-yl)-2,7-diazaspiro[3.5]nonan-2-yl)ethyl)phenyl)-1H-pyrazol-4-yl)-6-(trifluoromethyl)picolinamide] |  |  | 
13 | < 100 | > 60 | NC(=O)c1nn(-c2ccc(COC3CC4(CCN(CC5CCN(c6ccc(NC7CCC(=O)NC7=O)cc6F)CC5)CC4)C3)cc2)cc1NC(=O)c1cccc(C(F)(F)F)n1 (stereo not drawn) [Compound A317, N-(3-Carbamoyl-1-(4-(((7-((1-(4-((2,6-dioxopiperidin-3-yl)amino)-2-fluorophenyl)piperidin-4-yl)methyl)-7-azaspiro[3.5]nonan-2-yl)oxy)methyl)phenyl)-1H-pyrazol-4-yl)-6-(trifluoromethyl)picolinamide] |  |  | 
14 | < 100 | > 60 | COc1ccc(C(=O)N2CCC3(CC2)CC(Cc2ccc(-n4cc(NC(=O)c5cccc(C(F)(F)F)n5)c(C(N)=O)n4)cc2)C3)cc1N1CCC(=O)NC1=O [Compound A318, N-(3-Carbamoyl-1-(4-((7-(3-(2,4-dioxotetrahydropyrimidin-1(2H)-yl)-4-methoxybenzoyl)-7-azaspiro[3.5]nonan-2-yl)methyl)phenyl)-1H-pyrazol-4-yl)-6-(trifluoromethyl)picolinamide] |  |  | 
15 | 100 to 1000 | 40 to 60 | Cn1c(=O)n(C2CCC(=O)NC2=O)c2cccc(N3CCC4(CC3)CN(Cc3ccc(-n5cc(NC(=O)c6cccc(C(F)(F)F)n6)c(C(N)=O)n5)cc3)C4)c21 (stereo not drawn) [Compound A319, N-(3-carbamoyl-1-(4-((7-(1-(2,6-dioxopiperidin-3-yl)-3-methyl-2-oxo-2,3-dihydro-1H-benzo [d]imidazol-4-yl)-2,7-diazaspiro[3.5]nonan-2-yl)methyl)phenyl)-1H-pyrazol-4-yl)-6-(trifluoromethyl)picolinamide] |  |  | 
16 | < 100 | > 60 | Cn1c(=O)n(C2CCC(=O)NC2=O)c2cccc(N3CCC4(CC3)CN(C(=O)Cc3ccc(-n5cc(NC(=O)c6cccc(C(F)(F)F)n6)c(C(N)=O)n5)cc3)C4)c21 (stereo not drawn) [Compound A321, N-(3-Carbamoyl-1-(4-(2-(7-(1-(2,6-dioxopiperidin-3-yl)-3-methyl-2-oxo-2,3-dihydro-1H-benzimidazol-4-yl)-2,7-diazaspiro[3.5]nonan-2-yl)-2-oxoethyl)phenyl)-1H-pyrazol-4-yl)-6-(trifluoromethyl)picolinamide] |  |  | 
17 | < 100 | > 60 | Cn1c(=O)n(C2CCC(=O)NC2=O)c2cccc(N3CCC4(CC3)CC(NCc3ccc(-n5cc(NC(=O)c6cccc(-c7ccn[nH]7)n6)c(S(N)(=O)=O)n5)cc3)C4)c21 (stereo not drawn) [Compound A322, N-(1-(4-(((7-(1-(2,6-dioxopiperidin-3-yl)-3-methyl-2-oxo-2,3-dihydro-1H-benzo[d]imidazol-4-yl)-7-azaspiro[3.5]nonan-2-yl)amino)methyl)phenyl)-3-sulfamoyl-1H-pyrazol-4-yl)-6-(1H-pyrazol-5-yl)picolinamide] |  |  | 
18 | < 100 | > 60 | NS(=O)(=O)c1nn(-c2ccc(N3CCN(CC4CCN(c5ccc(NC6CCC(=O)NC6=O)cc5F)CC4)CC3)cc2)cc1NC(=O)c1cccc(-c2ccn[nH]2)n1 (stereo not drawn) [Compound A325, N-(1-(4-(4-((1-(-4-((2,6-dioxopiperidin-3-yl)amino)-2-fluorophenyl)piperidin-4-yl)methyl)piperazin-1-yl)phenyl)-3-sulfamoyl-1H-pyrazol-4-yl)-6-(1H-pyrazol-5-yl)picolinamide] |  |  | 
